# Laboratory results published in US20250032651A1, “[177LU] LUTETIUM-PSMA I&T COMPOSITION AND DOSIMETRY, KIT, METHOD OF MAKING, AND METHOD OF USING THEREOF” (Curium US LLC, priority 2022, published 2025).
# Experiment: Normal organ dosimetry Cycle 1: SPECT/CT, TIACs, OLINDA 2.2.3 absorbed radiation dose
# Type: in vivo, human
# Conditions: for Absorbed Dose, Mean / Absorbed Dose, max / Absorbed Dose, median / Absorbed Dose, min: n = 26
# Procedure: This Example presents the biodistribution, dosimetry, and pharmacokinetics (PK) results of a PK/Dosimetry sub-study performed as part of a Phase III trial. Twenty-seven (27) patients were administered a target activity of 7.4±10% GBq of ^177Lu-PSMA-I&T and underwent single photon emission computed tomography (SPECT)/computed tomography (CT) imaging at four timepoints (4 h, 24 h, 48 h, and 168 h). Image data was analysed to compute time-activity curves (TACs) and subsequently time-integrated activity coefficients (TIACs) in each organ of interest and in organs showing appreciable and meaningful ^177Lu-PSMA-I&T activity. Organ Level Internal Dose Assessment (OLINDA 2.2.3) was used to compute organ and whole body absorbed radiation doses for each patient.
# All participating sites underwent a rigorous site setup process during which all dose calibrators, scanners, and gamma counters used in the sub-study were calibrated. Sites were allowed to enroll patients in the sub-study only after the completion and approval of all site setup processes by Invicro. Patients underwent SPECT/CT imaging, with anatomical coverage typically extending from the salivary glands to the pelvis, following the administration of a targeted 7.4±10% GBq of ^177Lu-PSMA-I&T at cycle 1. SPECT/CT imaging was performed at four timepoints: 4 h, 24 h, 48 h, and 168 h post-injection. Additionally, a subset of patients imaged at Cycle 1 (16 out of 27), were also imaged at Cycle 3 (Table 2).
# The imaging data was analyzed using Invicro's VivoQuant software, a validated software used in a 21 CFR § 11-compliant workflow. The general quantification approach was based on the principles detailed in the Medical Internal Radiation Dose (MIRD) Pamphlet No. 16, No 23, and No 26 as appropriate.
# Volume of interest (VOI) (kidneys, bladder, liver, lumbar vertebrae L2-L4, lacrimal glands, salivary glands [parotid and submandibular glands], and whole body) were delineated on each dataset by a trained image analyst. […] Organs were segmented either by drawing the entire contour of the organ, or by placing a sphere in a representative region of the organ and then multiplying by the organ's effective mass (based on patient's height and weight). Segmentation methods for each organ are specified in Table 3 and were consistently applied to each patient.
# Clearance of the radiopharmaceutical was derived from a data-appropriate fit of each organ's TAC. Depending on the TAC's shape, the data was fitted with the sum of one, two, or three exponentials, or using a rise and fall model. Fitting was performed with in-house Python software. TIACs were calculated through analytical integration of the curve fit extrapolated to infinity. […] A whole-body TAC was derived from delineating the imaged body. The remainder activity was determined by subtracting the cumulative organ TIACs from the whole body TIAC.
# Organ TIACs were input into OLINDA 2.2.3 for the computation of organ and whole-body absorbed doses, using International Commission on Radiological Protection (ICRP)-103 weighing factors. The ICRP-89 derived male phantom was used for dose estimation. Organs and body mass as defined by ICRP-89 were scaled based on height and mass using patient effective mass.^4 The voiding bladder model as implemented in OLINDA was used to determine bladder TIAC, assuming a voiding interval of 4 hours. The human alimentary tract model (HAT model) described in ICRP 100 and implemented in OLINDA was used to compute doses to the small intestine, right colon, left colon and rectum for patients showing clearance through the GI tract. The fraction of injected activity (fIA) cleared via the GI tract was determined by taking the peak fIA in the GI tract over all the imaging timepoints. […] The Red Marrow mass in L2-L4 was assumed to be 6.7% of the total red marrow mass.
# [1] = Adrenals, 16 patients imaged at cycle 1 and 3
# [2] = Brain, 16 patients imaged at cycle 1 and 3
# [3] = Cycle 1, target activity 7.4±10% GBq, patients with mCRPC
# [4] = Esophagus, 16 patients imaged at cycle 1 and 3
# [5] = Eyes, 16 patients imaged at cycle 1 and 3
# [6] = Gallbladder wall, 16 patients imaged at cycle 1 and 3
# [7] = Heart wall, 16 patients imaged at cycle 1 and 3
compound,measurement,setting,value
"O=C([O-])CC[C@H](NC(=O)N[C@@H](CCCCNC(=O)CCCCCCC(=O)NCCCC[C@@H](NC(=O)[C@@H](Cc1ccccc1)NC(=O)[C@@H](Cc1ccc(O)c(I)c1)NC(=O)CC[C@H](C(=O)[O-])N1CCN(CC(=O)[O-])CCN(CC(=O)[O-])CCN(CC(=O)[O-])CC1)C(=O)[O-])C(=O)[O-])C(=O)[O-].[177Lu+3].[H+].[H+].[H+].[H+].[H+] [^177Lu-PSMA I&T, (3S,7S,26R,29R,32R,37R)-29-benzyl-32-(4-hydroxy-3-iodobenzyl)-5,13,20,28,31,34-hexaoxo-37-(4,7,10-tris(carboxymethyl)-1,4,7,10-tetraazacyclododecan-1-yl)-4,6,12,21,27,30,33-heptaazaheptatriacontane-1,3,7,26,37-pentacarboxylic acid; lutetium-177 (III)]","Absorbed Dose in Cycle 1, Mean",[1],0.02 Gy/GBq
same,"Absorbed Dose in Cycle 1, max",[1],0.08 Gy/GBq
same,"Absorbed Dose in Cycle 1, min",[1],0.01 Gy/GBq
same,"Absorbed Dose, Mean","Adrenals, Cycle 1",0.02 Gy/GBq
same,"Absorbed Dose, max","Adrenals, Cycle 1",0.08 Gy/GBq
same,"Absorbed Dose, median","Adrenals, Cycle 1",0.02 Gy/GBq
same,"Absorbed Dose, min","Adrenals, Cycle 1",0.01 Gy/GBq
same,"Absorbed Dose in Cycle 1, Mean","Adrenals, N = 16",0.02 Gy/GBq
same,"Absorbed Dose in Cycle 1, max","Adrenals, N = 16",0.08 Gy/GBq
same,"Absorbed Dose in Cycle 1, min","Adrenals, N = 16",0.01 Gy/GBq
same,"Absorbed Dose in Cycle 1, Mean",[2],0.01 Gy/GBq
same,"Absorbed Dose in Cycle 1, max",[2],0.07 Gy/GBq
same,"Absorbed Dose in Cycle 1, min",[2],0.00 Gy/GBq
same,"Absorbed Dose, Mean","Brain, Cycle 1",0.01 Gy/GBq
same,"Absorbed Dose, max","Brain, Cycle 1",0.07 Gy/GBq
same,"Absorbed Dose, median","Brain, Cycle 1",0.01 Gy/GBq
same,"Absorbed Dose, min","Brain, Cycle 1",0.00 Gy/GBq
same,"Absorbed Dose in Cycle 1, Mean","Brain, N = 16",0.01 Gy/GBq
same,"Absorbed Dose in Cycle 1, max","Brain, N = 16",0.07 Gy/GBq
same,"Absorbed Dose in Cycle 1, min","Brain, N = 16",0.00 Gy/GBq
same,mean red marrow (bone marrow) absorbed radiation dose,"Cycle 1, image-based, L2-L4",0.08±0.12 Gy/GBq
same,mean red marrow absorbed dose,"Cycle 1, remaining 20 patients, excluding six high-marrow-dose cases and the superscan patient",0.02±0.02 Gy/GBq
same,"absorbed radiation dose, salivary glands (mean ± SD)","Cycle 1, target activity 7.4±10% GBq, patient 12-004 excluded",0.19±0.16 Gy/GBq
same,"absorbed radiation dose, kidneys (mean ± SD)",[3],0.41±0.15 Gy/GBq
same,"absorbed radiation dose, lacrimal glands (mean ± SD)",[3],0.40±0.36 Gy/GBq
same,"absorbed radiation dose, left colon (mean ± SD)",[3],0.47±0.31 Gy/GBq
same,"absorbed radiation dose, rectum (mean ± SD)",[3],0.44±0.30 Gy/GBq
same,"absorbed radiation dose, urinary bladder (mean ± SD)",[3],0.41±0.05 Gy/GBq
same,"Absorbed Dose in Cycle 1, Mean",[4],0.01 Gy/GBq
same,"Absorbed Dose in Cycle 1, max",[4],0.07 Gy/GBq
same,"Absorbed Dose in Cycle 1, min",[4],0.00 Gy/GBq
same,"Absorbed Dose, Mean","Esophagus, Cycle 1",0.02 Gy/GBq
same,"Absorbed Dose, max","Esophagus, Cycle 1",0.07 Gy/GBq
same,"Absorbed Dose, median","Esophagus, Cycle 1",0.01 Gy/GBq
same,"Absorbed Dose, min","Esophagus, Cycle 1",0.00 Gy/GBq
same,"Absorbed Dose in Cycle 1, Mean","Esophagus, N = 16",0.01 Gy/GBq
same,"Absorbed Dose in Cycle 1, max","Esophagus, N = 16",0.07 Gy/GBq
same,"Absorbed Dose in Cycle 1, min","Esophagus, N = 16",0.00 Gy/GBq
same,"Absorbed Dose in Cycle 1, Mean",[5],0.01 Gy/GBq
same,"Absorbed Dose in Cycle 1, max",[5],0.07 Gy/GBq
same,"Absorbed Dose in Cycle 1, min",[5],0.00 Gy/GBq
same,"Absorbed Dose, Mean","Eyes, Cycle 1",0.01 Gy/GBq
same,"Absorbed Dose, max","Eyes, Cycle 1",0.07 Gy/GBq
same,"Absorbed Dose, median","Eyes, Cycle 1",0.01 Gy/GBq
same,"Absorbed Dose, min","Eyes, Cycle 1",0.00 Gy/GBq
same,"Absorbed Dose in Cycle 1, Mean","Eyes, N = 16",0.01 Gy/GBq
same,"Absorbed Dose in Cycle 1, max","Eyes, N = 16",0.07 Gy/GBq
same,"Absorbed Dose in Cycle 1, min","Eyes, N = 16",0.00 Gy/GBq
same,"Absorbed Dose in Cycle 1, Mean",[6],0.02 Gy/GBq
same,"Absorbed Dose in Cycle 1, max",[6],0.07 Gy/GBq
same,"Absorbed Dose in Cycle 1, min",[6],0.00 Gy/GBq
same,"Absorbed Dose, Mean","Gallbladder wall, Cycle 1",0.02 Gy/GBq
same,"Absorbed Dose, max","Gallbladder wall, Cycle 1",0.07 Gy/GBq
same,"Absorbed Dose, median","Gallbladder wall, Cycle 1",0.01 Gy/GBq
same,"Absorbed Dose, min","Gallbladder wall, Cycle 1",0.00 Gy/GBq
same,"Absorbed Dose in Cycle 1, Mean","Gallbladder wall, N = 16",0.02 Gy/GBq
same,"Absorbed Dose in Cycle 1, max","Gallbladder wall, N = 16",0.07 Gy/GBq
same,"Absorbed Dose in Cycle 1, min","Gallbladder wall, N = 16",0.00 Gy/GBq
same,"Absorbed Dose in Cycle 1, Mean",[7],0.01 Gy/GBq
same,"Absorbed Dose in Cycle 1, max",[7],0.07 Gy/GBq
same,"Absorbed Dose in Cycle 1, min",[7],0.00 Gy/GBq
same,"Absorbed Dose, Mean","Heart wall, Cycle 1",0.02 Gy/GBq
same,"Absorbed Dose, max","Heart wall, Cycle 1",0.07 Gy/GBq
same,"Absorbed Dose, median","Heart wall, Cycle 1",0.01 Gy/GBq
same,"Absorbed Dose, min","Heart wall, Cycle 1",0.00 Gy/GBq
same,"Absorbed Dose in Cycle 1, Mean","Heart wall, N = 16",0.01 Gy/GBq
same,"Absorbed Dose in Cycle 1, max","Heart wall, N = 16",0.07 Gy/GBq
